Experimental data: PubChem BioAssay AID1745844 (Carcinogenic Potency Database (CPDB), 2022)
The source made the active and inactive calls. No rule for the calls is given here.

Test system: rodent lifetime carcinogenesis bioassay, tumor incidence TD50
Test: chronic cancer bioassays in animals – CPDB, compiled studies (AID 1745844)

Q: How did the TD50 (rat, strain Fischer 344, females, in feed, site: any site (literature study), lesion: several types, types named in the paper, dosed 92 weeks, study length 104 weeks) turn out when `C/C=C(/C)C(=O)O[C@H]1CCN2CC=C(COC(=O)[C@@](O)([C@H](C)OC)C(C)(C)O)[C@H]12` was run?
A: 0.102 mg/kg/day

Q: What about the TD50 (rat, strain Fischer 344, females, in feed, site: liver + multiple organs, lesion: adenoma, NOS + angiosarcoma + hepatocellular carcinoma + granulocytic leukemia + leukemia + lymphocytic leukemia + lymphoma + undiffer, dosed 92 weeks, study length 104 weeks) of the same molecule?
A: 0.141 mg/kg/day

Q: What about the TD50 (rat, strain Fischer 344, females, in feed, site: liver, lesion: adenoma, NOS + hepatocellular carcinoma, dosed 92 weeks, study length 104 weeks) of the same molecule?
A: 0.453 mg/kg/day

Q: What about the TD50 (rat, strain Fischer 344, females, in feed, site: liver, lesion: angiosarcoma, dosed 92 weeks, study length 104 weeks) of the same molecule?
A: 0.355 mg/kg/day

Q: And the TD50 (rat, strain Fischer 344, females, in feed, site: liver, lesion: hepatocellular adenoma + hepatocellular carcinoma + neoplastic nodule, dosed 92 weeks, study length 104 weeks)?
A: 22.7 mg/kg/day

Q: And the TD50 (rat, strain Fischer 344, females, in feed, site: multiple organs, lesion: granulocytic leukemia + lymphocytic leukemia + undifferentiated leukemia, dosed 92 weeks, study length 104 weeks)?
A: 0.387 mg/kg/day

Q: And the TD50 (rat, strain Fischer 344, females, in feed, site: multiple organs, lesion: leukemia + lymphoma, dosed 92 weeks, study length 104 weeks)?
A: 0.325 mg/kg/day

Q: And the TD50 (rat, strain Fischer 344, males, i.p., site: any site (literature study), lesion: several types, types named in the paper, dosed 56 weeks, study length 76 weeks)?
A: 0.152 mg/kg/day

Q: What about the TD50 (rat, strain Fischer 344, males, i.p., site: liver, lesion: hepatocellular carcinoma, dosed 56 weeks, study length 76 weeks) of the same molecule?
A: 0.397 mg/kg/day

Q: What about the TD50 (rat, strain Fischer 344, males, i.p., site: liver, lesion: several types, types named in the paper, dosed 56 weeks, study length 76 weeks) of the same molecule?
A: 0.341 mg/kg/day

Q: What about the TD50 (rat, strain Fischer 344, males, i.p., site: lung, lesion: adenoma, dosed 56 weeks, study length 76 weeks) of the same molecule?
A: 1.33 mg/kg/day

Q: What about the TD50 (rat, strain Fischer 344, males, i.p., site: skin, lesion: squamous-cell carcinoma, dosed 56 weeks, study length 76 weeks) of the same molecule?
A: 0.794 mg/kg/day

Q: And the TD50 (rat, strain Fischer 344, males, i.p., site: small intestine, lesion: adenocarcinoma, dosed 56 weeks, study length 76 weeks)?
A: 2.73 mg/kg/day

Q: What about the TD50 (rat, strain Fischer 344, males, in feed, site: all sites, lesion: leukemia + lymphoma, dosed 98 weeks, study length 104 weeks) of the same molecule?
A: 0.514 mg/kg/day

Q: What about the TD50 (rat, strain Fischer 344, males, in feed, site: any site (literature study), lesion: several types, types named in the paper, dosed 55 weeks, study length 59 weeks) of the same molecule?
A: 0.217 mg/kg/day

Q: And the TD50 (rat, strain Fischer 344, males, in feed, site: any site (literature study), lesion: several types, types named in the paper, dosed 98 weeks, study length 104 weeks)?
A: 0.152 mg/kg/day

Q: And the TD50 (rat, strain Fischer 344, males, in feed, site: liver, lesion: adenoma, NOS + angiosarcoma + hepatocellular carcinoma, dosed 98 weeks, study length 104 weeks)?
A: 0.25 mg/kg/day

Q: What about the TD50 (rat, strain Fischer 344, males, in feed, site: liver, lesion: adenoma, NOS + hepatocellular carcinoma, dosed 98 weeks, study length 104 weeks) of the same molecule?
A: 0.908 mg/kg/day

Q: What about the TD50 (rat, strain Fischer 344, males, in feed, site: liver, lesion: angiosarcoma, dosed 55 weeks, study length 59 weeks) of the same molecule?
A: 0.688 mg/kg/day

Q: What about the TD50 (rat, strain Fischer 344, males, in feed, site: liver, lesion: angiosarcoma, dosed 98 weeks, study length 104 weeks) of the same molecule?
A: 0.355 mg/kg/day

Q: What about the TD50 (rat, strain Fischer 344, males, in feed, site: liver, lesion: carcinoma, dosed 55 weeks, study length 59 weeks) of the same molecule?
A: 0.954 mg/kg/day

Q: What about the TD50 (rat, strain Fischer 344, males, in feed, site: liver, lesion: hepatocellular adenoma + hepatocellular carcinoma + neoplastic nodule, dosed 98 weeks, study length 104 weeks) of the same molecule?
A: 7.43 mg/kg/day

Q: `CCCCCCCC/C=C/CCCCCCCC(=O)OCCOCC(OCCO)C1OCC(OCCO)C1OCCO` (stereo not given) was tested. Which TD50 (mouse, strain B6C3F1, females, in feed, site: any site (literature study), lesion: several types, types named in the paper, dosed 103 weeks, study length 104 weeks) did it give?
A: 42900 mg/kg/day (inactive)

Q: What about the TD50 (mouse, strain B6C3F1, females, in feed, site: lung, lesion: alveolar/bronchiolar adenoma + alveolar/bronchiolar carcinoma, dosed 103 weeks, study length 104 weeks) of the same molecule?
A: 332000 mg/kg/day

Q: What about the carcinogen call (mouse, strain B6C3F1, males, in feed, site: any site (literature study), lesion: several types, types named in the paper, dosed 103 weeks, study length 104 weeks) of the same molecule?
A: negative (inactive)

Q: And the TD50 (rat, strain Fischer 344, females, in feed, site: liver, lesion: hepatocellular adenoma + hepatocellular carcinoma + neoplastic nodule, dosed 103 weeks, study length 104 weeks)?
A: 15800 mg/kg/day

Q: What about the TD50 (rat, strain Fischer 344, females, in feed, site: liver, lesion: hepatocellular adenoma, dosed 103 weeks, study length 104 weeks) of the same molecule?
A: 15800 mg/kg/day (inactive)

Q: And the TD50 (rat, strain Fischer 344, males, in feed, site: adrenal medulla, lesion: pheochromocytoma benign, bilateral + pheochromocytoma, malignant + pheochromocytoma, benign, dosed 99 weeks, study length 99 weeks)?
A: 2580 mg/kg/day

Q: And the TD50 (rat, strain Fischer 344, males, in feed, site: any site (literature study), lesion: several types, types named in the paper, dosed 99 weeks, study length 99 weeks)?
A: 3290 mg/kg/day

Q: And the TD50 (rat, strain Fischer 344, males, in feed, site: liver, lesion: hepatocellular adenoma + hepatocellular carcinoma + neoplastic nodule, dosed 99 weeks, study length 99 weeks)?
A: 217000 mg/kg/day

Q: For `[Cl][Sn][Cl]`, which TD50 (mouse, strain B6C3F1, females, in feed, site: all sites, lesion: lymphoma, histiocytic type, dosed 105 weeks, study length 105 weeks) is on record?
A: 2550 mg/kg/day

Q: And the TD50 (mouse, strain B6C3F1, females, in feed, site: any site (literature study), lesion: several types, types named in the paper, dosed 105 weeks, study length 105 weeks)?
A: 386 mg/kg/day

Q: And the TD50 (mouse, strain B6C3F1, females, in feed, site: liver, lesion: hepatocellular adenoma + hepatocellular carcinoma + neoplastic nodule, dosed 105 weeks, study length 105 weeks)?
A: 1020 mg/kg/day

Q: What about the TD50 (mouse, strain B6C3F1, females, in feed, site: liver, lesion: hepatocellular carcinoma, dosed 105 weeks, study length 105 weeks) of the same molecule?
A: 1420 mg/kg/day

Q: What about the TD50 (mouse, strain B6C3F1, females, in feed, site: pituitary gland, lesion: adenoma, dosed 105 weeks, study length 105 weeks) of the same molecule?
A: 1390 mg/kg/day (inactive)

Q: And the carcinogen call (mouse, strain B6C3F1, males, in feed, site: any site (literature study), lesion: several types, types named in the paper, dosed 105 weeks, study length 105 weeks)?
A: negative (inactive)

Q: And the carcinogen call (mouse, strain Charles River CD1, both sexes, in drinking water, site: any site (literature study), lesion: benign tumor, dosed 104 weeks, study length 104 weeks)?
A: negative (inactive)

Q: And the carcinogen call (mouse, strain Charles River CD1, both sexes, in drinking water, site: any site (literature study), lesion: malignant tumor, dosed 104 weeks, study length 104 weeks)?
A: negative (inactive)

Q: What about the carcinogen call (mouse, strain Charles River CD1, both sexes, in drinking water, site: any site (literature study), lesion: several types, types named in the paper, dosed 104 weeks, study length 104 weeks) of the same molecule?
A: negative (inactive)

Q: And the carcinogen call (mouse, strain Charles River CD1, both sexes, in drinking water, site: lung, lesion: adenoma, dosed 104 weeks, study length 104 weeks)?
A: negative (inactive)

Q: And the carcinogen call (mouse, strain Charles River CD1, both sexes, in drinking water, site: lung, lesion: several types, types named in the paper, dosed 104 weeks, study length 104 weeks)?
A: negative (inactive)

Q: What about the TD50 (rat, strain Fischer 344, females, in feed, site: any site (literature study), lesion: several types, types named in the paper, dosed 105 weeks, study length 104 weeks) of the same molecule?
A: 12000 mg/kg/day (inactive)

Q: What about the TD50 (rat, strain Fischer 344, females, in feed, site: liver, lesion: hepatocellular adenoma + hepatocellular carcinoma + neoplastic nodule, dosed 105 weeks, study length 104 weeks) of the same molecule?
A: 676000 mg/kg/day

Q: What about the TD50 (rat, strain Fischer 344, males, in feed, site: any site (literature study), lesion: several types, types named in the paper, dosed 104 weeks, study length 104 weeks) of the same molecule?
A: 180 mg/kg/day

Q: What about the TD50 (rat, strain Fischer 344, males, in feed, site: lung, lesion: alveolar/bronchiolar adenoma, dosed 104 weeks, study length 104 weeks) of the same molecule?
A: 951 mg/kg/day

Q: And the TD50 (rat, strain Fischer 344, males, in feed, site: thyroid gland, lesion: c-cell adenoma + c-cell carcinoma, dosed 104 weeks, study length 104 weeks)?
A: 87.4 mg/kg/day (inactive)

Q: And the TD50 (rat, strain Fischer 344, males, in feed, site: thyroid gland, lesion: c-cell carcinoma, dosed 104 weeks, study length 104 weeks)?
A: 405 mg/kg/day

Q: And the carcinogen call (rat, strain Long-Evans BLU:(LE), both sexes, in drinking water, site: any site (literature study), lesion: malignant tumor, dosed 156 weeks, study length 156 weeks)?
A: negative (inactive)

Q: What about the carcinogen call (rat, strain Long-Evans BLU:(LE), both sexes, in drinking water, site: any site (literature study), lesion: one or several types, types not named, dosed 156 weeks, study length 156 weeks) of the same molecule?
A: negative (inactive)

Q: And the carcinogen call (rat, strain Long-Evans BLU:(LE), both sexes, in drinking water, site: liver, lesion: one or several types, types not named, dosed 156 weeks, study length 156 weeks)?
A: negative (inactive)
